Legend:
JEG-3 cells [1] = details: Biol. Reprod. (2007) 76: 203-10; cited from earlier work
JEG-3 cells [2] = experiment: [3H]-thymidine incorporation in JEG-3 cells (JEG-3 protocol); type: cell-based; details: FIG. 4
Method: In JEG-3 cells (choriocarcinoma cell line) leptin is able to stimulate proliferation up to 3 fold (Biol. Reprod. (2007) 76: 203-10). […] The radioactivity incorporated by the cells is an index of their proliferative activity and is measured in counts per minute (CPM) with a liquid scintillation beta counter.
This finding can be applied to test whether a compound is able to either reproduce the effect of leptin on cell proliferation (leptin receptor agonist mimetic) (i.e., a given compound will cause an increase in incorporated [^3H]-Thymidine by the cells) or to inhibit the effect of leptin (antagonistic effect) by preventing the leptin-mediated increase in [^3H]-thymidine incorporation.

EC50 (JEG-3 cells [2]; JEG-3 cells (choriocarcinoma cell line), read-out: EC50, increase in [3H]-thymidine incorporation): 2.1 nM
Substance: leptin: hormone synthesized in fat cells that is believed to act in the hypothalamus to reduce food intake and body weight
stimulation of proliferation (JEG-3 cells [1]): up to 3 fold | concentration of maximal effect on [3H]-thymidine incorporation (JEG-3 cells [2]; JEG-3 cells): 100 nM

From US20110275638A1, “PIPERAZINE DERIVATIVES AND THEIR USE AS LEPTIN RECEPTOR MODULATORS” (priority 2008, published 2011)
